This is an account of results in paper PMC6270759, “Constituents of the Roots and Leaves of Ekebergia capensis and Their Potential Antiplasmodial and Cytotoxic Activities” (Molecules, 2014).

One data set concerns vero cells. Briefly: Interaction of oleanonic acid (2) with other triterpenoids, fixed ratios, vero cell cytotoxicity. Type of data set: cell-based, African monkey. From the text: This assay is based on the ability of a mitochondrial dehydrogenase enzyme from viable cells to cleave the tetrazolium rings of the pale yellow MTT and thereby form dark blue formazan crystals, which are largely impermeable to cell membranes, resulting in their accumulation within healthy cells. The amount of generated formazan is directly proportional to the number of cells. […] Cells were maintained in Eagle’s Minimum Essential Medium (MEM) containing 10% fetal bovine serum (FBS). A cell density of 20.000 cells per well in 100 μL were seeded on 96-well plates and incubated for 12 h at 37 °C and 5% CO2 to attach to the surface. […] The plates were incubated for 48 h at 37 °C and 5% CO2, followed by an addition of 10 µL MTT viability indicator reagent. The plates were incubated for additional 4 h at the same conditions. Next, all media was removed from the plates and 100 µL DMSO was added to dissolve the formazan crystals. The plates were read on a Multiskan EX Labsystems scanning multi-well spectrophotometer at 562 nm, and 620 nm as reference. The results were recorded as optical density (OD) per well at each drug concentration. The data was transferred into the software Microsoft Excel and expressed as percentage of the untreated controls. Percentage cytotoxicity (PC) as compared to the untreated controls was calculated as PC = [A − B/A] × 100, where A is the mean OD of the untreated cells and B is the mean OD at each drug concentration. The drug concentration required for 50% inhibition of cell growth was estimated using nonlinear regression analysis of the dose- response curve. The interaction of oleanonic acid (2) with other triterpenoids was studied using the fixed concentration ratios oleanonic acid: ‘other triterpenoid’ 0:1, 1:3, 1:1, 3:1, 1:0. The vero cell cytotoxicity assay was used, as described above, to evaluate the toxicity of the mixtures. To determine whether there was synergy, additive effect or antagonism, the sum of fractional inhibition concentration (∑FIC) was calculated using the formula Ax/Ay + Bx/By = K, where Ax and Bx are the IC50s when the substances are used in combination, and Ay and By are the IC50s, when the substances are used alone. The data was scored with the scale ∑FIC < 1: synergism, 2 > ∑FIC ≥ 1: additive, 4 > ∑FIC ≥ 2: slight antagonism, ∑FIC ≥ 4: marked antagonism.

Data set [1] has as its system MDA-MB-231 human breast cancer cells. The data set can be described thus: Alamar Blue cytotoxicity assay, MDA-MB-231 cells. Type of data set: cell-based. The note with it: pure compounds, 72 h. The protocol:
Cytotoxicity tests on MDA-MB-231 cells were carried out following a previously described procedure. MDA-MB-231 human breast cancer cells were cultured in Dulbecco’s modified eagle medium (DMEM) supplemented with 10% (v/v) fetal bovine serum, 2 mM L-glutamine, 100 units/mL penicillin and 100 μg/mL streptomycin at 37 °C in humidified 5% CO2. For cytotoxicity assays, cells were seeded in 96-well plates at optimal cell density (10,000 cells per well) to ensure exponential growth for the duration of the assay. After a 24 h preincubation growth, the medium was replaced with experimental medium containing the appropriate drug concentrations or vehicle controls (0.1% or 1.0% v/v DMSO). After 72 h of incubation, cell viability was measured using Alamar Blue reagent (Invitrogen Ab, Lidingö, Sweden) according to the manufacturer’s instructions. Absorbance was measured at 570 nm with 600 nm as a reference wavelength. Results were expressed as the mean ± standard error for six replicates as a percentage of vehicle control (taken as 100%). Experiments were performed independently at least six times. Statistical analyses were performed using a two-tailed Student’s t-test. p < 0.05 was considered to be statistically significant.
On the technique in general: The colour change of resazurin is a common sign of viable cells or microbes.

In data set [2] the test system is chloroquine-sensitive D6 strain of P. falciparum. The data set can be described thus: In vitro antiplasmodial assay, (G-3H) hypoxanthine incorporation, D6 strain. The note with it: Plasmodium falciparum; pure compounds; P. falciparum D6; mean of at least three independent experiments; read-out: IC50 D6. Type of data set: cell-based. As for the experimental part:
(§1) Continuous in vitro cultures of asexual erythrocytic stages of Indochinese chloroquine-resistant W2 and Sierra Leonean chloroquine-sensitive D6 strains of P. falciparum were maintained following the modified procedure described by Trager and Jensen. Drug assay was carried out following a modification of the semiautomated microdilution technique, which measures the ability of the extracts to inhibit the incorporation of (G-^3H) hypoxanthine into the malaria parasite. […] Data was transferred into the software Microsoft Excel and was expressed as the percentage of the untreated controls. The drug concentration required for 50% inhibition of (G-^3H) hypoxanthine incorporation into parasite nucleic acid was calculated with nonlinear regression analysis of the dose-response curve.

The subject of data set [3] is African monkey kidney (vero) cells. The data set can be described thus: MTT cytotoxicity assay, vero cells. Type of data set: cell-based. The note with it: Primates; vero cells, MTT, 48 h; read-out: IC50 Vero. From the text:
(§2) This assay is based on the ability of a mitochondrial dehydrogenase enzyme from viable cells to cleave the tetrazolium rings of the pale yellow MTT and thereby form dark blue formazan crystals, which are largely impermeable to cell membranes, resulting in their accumulation within healthy cells. The amount of generated formazan is directly proportional to the number of cells. […] Cells were maintained in Eagle’s Minimum Essential Medium (MEM) containing 10% fetal bovine serum (FBS). A cell density of 20.000 cells per well in 100 μL were seeded on 96-well plates and incubated for 12 h at 37 °C and 5% CO2 to attach to the surface. […] The plates were incubated for 48 h at 37 °C and 5% CO2, followed by an addition of 10 µL MTT viability indicator reagent. The plates were incubated for additional 4 h at the same conditions. Next, all media was removed from the plates and 100 µL DMSO was added to dissolve the formazan crystals. The plates were read on a Multiskan EX Labsystems scanning multi-well spectrophotometer at 562 nm, and 620 nm as reference. The results were recorded as optical density (OD) per well at each drug concentration. The data was transferred into the software Microsoft Excel and expressed as percentage of the untreated controls.

The subject of data set [4] is 3D7 strain of P. falciparum. Also on record: method as in PMID 14598212. As to conditions: cited from earlier work.
The subject of data set [5] is human larynx carcinoma (HEp2) cells. Briefly: MTT cytotoxicity assay, HEp2 cells. Type of data set: cell-based. As to conditions: HEp-2, pure compounds, 48 h. As for the experimental part: A rapid colorimetric assay was carried out using 3-(4,5-dimethylthiazol-2-yl)-2,5-diphenyltetrazolium bromide (MTT). This assay is based on the ability of a mitochondrial dehydrogenase enzyme from viable cells to cleave the tetrazolium rings of the pale yellow MTT and thereby form dark blue formazan crystals, which are largely impermeable to cell membranes, resulting in their accumulation within healthy cells. The amount of generated formazan is directly proportional to the number of cells. In this assay, the mammalian cell lines African monkey kidney (vero), mouse breast cancer (4T1) and human larynx carcinoma (HEp2) were used. Cells were maintained in Eagle’s Minimum Essential Medium (MEM) containing 10% fetal bovine serum (FBS). A cell density of 20.000 cells per well in 100 μL were seeded on 96-well plates and incubated for 12 h at 37 °C and 5% CO2 to attach to the surface. Samples of the tested extracts and isolated compounds were added to the cultured cells in rows H-B over a concentration range of 0.14 to 100 μg/mL, whereas wells 1–8 of row A served as untreated controls and wells 9–12 as blank (1% DMSO, v/v). The plates were incubated for 48 h at 37 °C and 5% CO2, followed by an addition of 10 µL MTT viability indicator reagent. The plates were incubated for additional 4 h at the same conditions. Next, all media was removed from the plates and 100 µL DMSO was added to dissolve the formazan crystals. The plates were read on a Multiskan EX Labsystems scanning multi-well spectrophotometer at 562 nm, and 620 nm as reference. The results were recorded as optical density (OD) per well at each drug concentration. The data was transferred into the software Microsoft Excel and expressed as percentage of the untreated controls. Percentage cytotoxicity (PC) as compared to the untreated controls was calculated as PC = [A − B/A] × 100, where A is the mean OD of the untreated cells and B is the mean OD at each drug concentration. The drug concentration required for 50% inhibition of cell growth was estimated using nonlinear regression analysis of the dose- response curve.
(In general: Formazan colour is commonly taken as a measure of viable cells.)

The subject of data set [6] is chloroquine-resistant W2 strain of P. falciparum. The data set can be described thus: In vitro antiplasmodial assay, (G-3H) hypoxanthine incorporation, W2 strain. As to conditions: Plasmodium falciparum, pure compounds. The data set is classed as cell-based. As for the experimental part: as §1
Data set [7] has as its system mouse breast cancer (4T1) cells. Briefly: MTT cytotoxicity assay, 4T1 cells. Type of data set: cell-based. As to conditions: 4T1, 48 h, pure compounds.
Source text: as §2

Marks after values point to notes of the source that are not given here.

As to `CC1(C)CC[C@]2(C(=O)O)CC[C@]3(C)C(=CC[C@@H]4[C@@]5(C)CC[C@H](O)C(C)(C)[C@@H]5CC[C@]43C)[C@@H]2C1` [Compound 4, oleanolic acid], the “Interaction with the cytotoxic effect of oleanonic acid (2), in words” value in the data set on vero cells is recorded as “slight antagonistic effect”. Besides, the IC50 in the data set on vero cells (Primates, ratio 0:1, in the absence of 2 (for 2: alone), read-out: IC50 (μg/mL), substance alone) came out at 40.3 µg/mL; in data set [1] it was 39.82 ± 0.03 µM; in data set [2], 49.6 ± 2.3 µM; in data set [3] it was 112 ± 5.1 µM; in data set [5], 134.9 ± 0.7 µM; in data set [6], 82.7 ± 2 µM. The compound further displayed an IC50 in data set [7] of 118 ± 2.6 µM. For the same compound, in the data set on vero cells (ratio of oleanonic acid (2) versus constituent 1:1), the “∑FIC 1:1” value is recorded as 4.7 ^c. Also, in the data set on vero cells (ratio of oleanonic acid (2) versus constituent 1:3), the “∑FIC 1:3” value was 3.3 ^c. Besides, in the data set on vero cells (ratio of oleanonic acid (2) versus constituent 3:1), the “∑FIC 3:1” value was 3.6 ^c. In addition, in data set [4], the “in vitro antiplasmodial activity against 3D7, in words” value was “moderate”.
